Data set [1] in a line: Mouse PK analysis, plasma. Type of data set: in vivo. To be noted: ip, 10 mg/kg.
A short description of data set [2]: Mouse PK analysis, large intestine. Type of data set: in vivo. To be noted: female, CD-1, mouse, large intestine, ip, 10 mg/kg; read-out: Large Intestinal pK AUClast (converted).

For orientation: melting point means the temperature of the solid-liquid transition.

Take `COc1ccc(S(=O)(=O)N2CCC(N3CCC(C)CC3)CC2)cc1` [compound 6, 1′-((4-methoxyphenyl)sulfonyl)-4-methyl-1,4′-bipiperidine]: in data set [1], the “Plasma pK AUClast (ng · min/mL)” value is 104,103 ng · min/mL, the “Plasma pK Cmax (ng/mL)” value was 2,390 ng/mL, the “Plasma pK Tmax (min)” value was determined as 10 min and the “Plasma pK Vz (mL)” value is given as 162 mL. The AUC(0-t) in data set [2] is 12300 ng·h/mL.

`COc1ccc(Br)cc1S(=O)(=O)N1CCC(N2CCC(C)CC2)CC1` [compound 33, 1′-((5-Bromo-2-methoxyphenyl)sulfonyl)-4-methyl-1,4′-bipiperidine]: the melting point lay within 98 to 102 °C.

`Cc1cccc(S(=O)(=O)N2CCC(N3CCC(C)CC3)CC2)c1` [compound 26, 4-Methyl-1′-(m-tolylsulfonyl)-1,4′-bipiperidine] gave a melting point of 90 to 93 °C.

As for `Cc1cc(C)c(S(=O)(=O)N2CCC(c3ccccc3)CC2)c(C)c1` [compound 116, 1-(Mesitylsulfonyl)-4-phenylpiperidine], the melting point lay within 88 to 90 °C.

Consider `CC1CCN(C2CCN(S(=O)(=O)c3ccccc3-c3ccccc3)CC2)CC1` [compound 51, 1′-([1,1′-Biphenyl]-2-ylsulfonyl)-4-methyl-1,4′-bipiperidine], for which the melting point lay in the range of 106 to 109 °C.

Turning to `CC1CCN(C2CCN(S(=O)(=O)c3cccnc3F)CC2)CC1` [compound 73, 1′-((2-Fluoropyridin-3-yl)sulfonyl)-4-methyl-1,4′-bipiperidine], the melting point was 120 to 123 °C.

With `Cc1ccc(C#N)c(S(=O)(=O)N2CCC(N3CCC(C)CC3)CC2)c1` [compound 36, 4-Methyl-2-((4-methyl-[1,4′-bipiperidin]-1′-yl)sulfonyl)benzonitrile], the melting point was in the range of 118 to 121 °C.

In turn, `Cc1cc(C)c(S(=O)(=O)N2CCN(C34CC5CC(CC(C5)C3)C4)CC2)c(C)c1` [compound 128, 1-(Adamantan-1-yl)-4-(mesitylsulfonyl)piperazine] gave a melting point of 182 to 184 °C.

On to `Cc1cc(C)c(S(=O)(=O)c2ccc(N3CCC(C)CC3)cc2)c(C)c1` [compound 125, 1-(4-(Mesitylsulfonyl)phenyl)-4-methylpiperidine], for which the melting point is 103 to 105 °C.

As to `CC1CCCN(C2CCN(S(=O)(=O)c3ccc(OC(F)F)cc3)CC2)C1` (stereo not drawn) [compound 91, 1′-((4-(Difluoromethoxy)phenyl)sulfonyl)-3-methyl-1,4′-bipiperidine], the melting point was 88 to 91 °C.

The compound `Cc1ccc(NC2CCN(S(=O)(=O)c3c(C)cc(C)cc3C)CC2)cc1` [compound 114, 1-(Mesitylsulfonyl)-N-(p-tolyl)piperidin-4-amine] gave a melting point of 148 to 151 °C.

In turn, `CCCCOc1ccc(S(=O)(=O)N2CCC(N3CCC(C)CC3)CC2)cc1` [compound 19, 1′-((4-Butoxyphenyl)sulfonyl)-4-methyl-1,4′-bipiperidine] displayed a melting point of 137 to 139 °C.

Take `CCc1cc(Br)ccc1S(=O)(=O)N1CCC(N2CCC(C)CC2)CC1` [compound 38, 1′-((4-Bromo-2-ethylphenyl)sulfonyl)-4-methyl-1,4′-bipiperidine]: the melting point lay within 87 to 91 °C.

`CC1CCN(C2CCN(S(=O)(=O)c3cccc(-c4ccccc4C(F)(F)F)c3)CC2)CC1` [compound 68, 4-Methyl-1′-((2′-(trifluoromethyl)-[1,1′-biphenyl]-3-yl)sulfonyl)-1,4′-bipiperidine] registered a melting point of 110 to 112 °C.

For `CCCOc1ccc(S(=O)(=O)N2CCC(N3CCC(C)CC3)CC2)cc1` [compound 18, 4-Methyl-1′-((4-propoxyphenyl)sulfonyl)-1,4′-bipiperidine], the melting point lay within 118 to 121 °C.

For `Cc1cc(C)c(S(=O)(=O)N2CCC(N3CCC(c4ccccc4)CC3)CC2)c(C)c1` [compound 111, 1′-(Mesitylsulfonyl)-4-phenyl-1,4′-bipiperidine], the melting point lay within 141 to 144 °C.

`CC1CCN(C2CCN(S(=O)(=O)c3ccc(C(F)(F)F)cc3)CC2)CC1` [compound 15, 4-Methyl-1′-((4-(trifluoromethyl)phenyl)sulfonyl)-1,4′-bipiperidine]: the melting point fell in the range of 175 to 178 °C.

As to `CCCC(=O)NC1CCN(S(=O)(=O)c2c(C)cc(C)cc2C)CC1` [compound 118, N-(1-(Mesitylsulfonyl)piperidin-4-yl)butyramide], the melting point fell in the range of 144 to 147 °C.

As for `Cc1cc(Cl)cc(Cl)c1S(=O)(=O)N1CCC(N2CCC(C)CC2)CC1` [compound 49, 1′-((2,4-Dichloro-6-methylphenyl)sulfonyl)-4-methyl-1,4′-bipiperidine], the melting point is 89 to 91 °C.

`COc1cc(C)ccc1S(=O)(=O)N1CCC(N2CCC(C)CC2)CC1` [compound 34, 1′-((2-Methoxy-4-methylphenyl)sulfonyl)-4-methyl-1,4′-bipiperidine] yielded a melting point of 95 to 98 °C.

`CC1CCN(C2CCN(S(=O)(=O)c3ccc(Cl)c(C(F)(F)F)c3)CC2)CC1` [compound 39, 1′-((4-Chloro-3-(trifluoromethyl)phenyl)sulfonyl)-4-methyl-1,4′-bipiperidine] registered a melting point of 118 to 120 °C.

On to `Cc1ccc(S(=O)(=O)N2CCC(N3CCC(C)CC3)CC2)cc1` [compound 11, 4-Methyl-1′-tosyl-1,4′-bipiperidine], for which the melting point lay in the range of 139 to 142 °C.

In the case of `COc1ccc(OC)c(S(=O)(=O)N2CCC(N3CCC(C)CC3)CC2)c1` [compound 32, 1′-((2,5-Dimethoxyphenyl)sulfonyl)-4-methyl-1,4′-bipiperidine], the melting point lay in the range of 75 to 78 °C.

`Cc1cc(C)c(S(=O)(=O)N2CCC(CO)CC2)c(C)c1` [compound 137, (1-(mesitylsulfonyl)piperidin-4-yl)methanol] had a melting point of 85 to 88 °C.

`Cc1ccc(S(=O)(=O)N2CCC(N3CCC(C)CC3)CC2)cc1C` [compound 37, 1′-((3,4-Dimethylphenyl)sulfonyl)-4-methyl-1,4′-bipiperidine] displayed a melting point of 87 to 89 °C.

Turning to `COc1ccc(S(=O)(=O)N2CCC(N3CCC(C)CC3)CC2)cc1OC` [compound 31, 1′-((3,4-Dimethoxyphenyl)sulfonyl)-4-methyl-1,4′-bipiperidine], the melting point was in the range of 132 to 134 °C.

`CC1CCN(C2CCN(S(=O)(=O)c3nccn3C)CC2)CC1` [compound 77, 4-Methyl-1′-((1-methyl-1H-imidazol-2-yl)sulfonyl)-1,4′-bipiperidine]: the melting point was in the range of 153 to 156 °C.

With `CC1CCN(C2CCN(S(=O)(=O)c3ccc(Cl)c4ccccc34)CC2)CC1` [compound 88, 1′-((4-Chloronaphthalen-1-yl)sulfonyl)-4-methyl-1,4′-bipiperidine], the melting point fell in the range of 129 to 132 °C.

Regarding `CC1CCN(C2CCN(S(=O)(=O)c3ccc([N+](=O)[O-])c(C(F)(F)F)c3)CC2)CC1` [compound 35, 4-Methyl-1′-((4-nitro-3-(trifluoromethyl)phenyl)sulfonyl)-1,4′-bipiperidine], the melting point was 175 to 178 °C.

Turning to `COc1ccc(-c2ccc(S(=O)(=O)N3CCC(N4CCC(C)CC4)CC3)cc2)cc1` [compound 58, 1′-((4′-Methoxy-[1,1′-biphenyl]-4-yl)sulfonyl)-4-methyl-1,4′-bipiperidine], the melting point fell in the range of 195 to 198 °C.

Compound `Cc1cc(C)c(S(=O)(=O)N2CCC(NC3CCCC3)CC2)c(C)c1` [compound 132, N-cyclopentyl-1-(mesitylsulfonyl)piperidin-4-amine] registered a melting point of 88 to 92 °C.

Consider `CC1CCN(C2CCN(S(=O)(=O)c3cccc(Cl)c3)CC2)CC1` [compound 28, 1′-((3-Chlorophenyl)sulfonyl)-4-methyl-1,4′-bipiperidine], for which the melting point was 122 to 124 °C.

`Cc1cc(C)c(S(=O)(=O)N2CCC(N3CCC(CCO)CC3)CC2)c(C)c1` [compound 100, 2-(1′-(Mesitylsulfonyl)-[1,4′-bipiperidin]-4-yl)ethanol]: the melting point lay within 82 to 85 °C.

In turn, `CC1CCN(C2CCN(S(=O)(=O)c3cccnc3Cl)CC2)CC1` [compound 72, 1′-((2-Chloropyridin-3-yl)sulfonyl)-4-methyl-1,4′-bipiperidine] returned a melting point of 122 to 124 °C.

With `CC1CCN(CC2CCN(S(=O)(=O)c3ccc4ncsc4c3)CC2)CC1` [compound 148, 6-((4-((4-methylpiperidin-1-yl)methyl)piperidin-1-yl)sulfonyl)benzo[d]thiazole], the melting point is 137 to 139 °C.

As for `CC1CCN(C2CCN(C(=O)c3ccc(OC(F)(F)F)cc3)CC2)CC1` [compound 119, (4-Methyl-[1,4′-bipiperidin]-1′-yl)(4-(trifluoromethoxy)phenyl)methanone], the melting point fell in the range of 72 to 75 °C.

For the compound `Cc1nc(Cl)sc1S(=O)(=O)N1CCC(N2CCC(C)CC2)CC1` [compound 81, 2-Chloro-4-methyl-5-((4-methyl-[1,4′-bipiperidin]-1′-yl)sulfonyl)thiazole], the melting point was 117 to 119 °C.

In turn, `Cc1ccc(-c2cccc(S(=O)(=O)N3CCC(N4CCC(C)CC4)CC3)c2)cc1` [compound 64, 4-Methyl-1′-((4′-methyl-[1,1′-biphenyl]-3-yl)sulfonyl)-1,4′-bipiperidine] came in with a melting point of 103 to 105 °C.

These data come from US20220024891A1 (The Board of Regents of the University of Texas System, priority 2018, published 2022).
